In patent US20240262845A1, “PYRIDINIUM SALTS, METHODS OF MAKING, AND METHODS OF USE” (UNIVERSITY OF WYOMING, priority 2023, published 2024):
Structures can show the parent of a compound that is named as a salt.

Tests used:
[1] = Fluorescence lifetime and emission measurements; type: physicochemical; conditions: 10 μM in H2O, 375 nm excitation
Description: The emission spectra were generated by excitation of a 10 μM solution of either pyridinium salt 2a or pyridinium salt 2b in H2O. Analyses were performed at 375 nm excitation with an emission slit width of 5 nm and an excitation slit width of 5 nm. The emission wavelength was gathered from 400 nm to 600 nm.
FIGS. 9A-9D show fluorescence decay spectra of pyridinium salts 2a and 2b in selected solvents according to at least one embodiment of the present disclosure. Specifically, FIG. 9A is a fluorescence decay spectrum of pyridinium salt 2a in 1,2-dichloroethane, FIG. 9B is a fluorescence decay spectrum of pyridinium salt 2a in CH3CN, FIG. 9C is a fluorescence decay spectrum of pyridinium salt 2a in H2O, and FIG. 9D is a fluorescence decay spectrum of pyridinium salt 2b in H2O. The fluorescent decay spectra were generated with a 1-10 μM solution of pyridinium salt (10 μM for H2O and 1 μM for other solvents) using a GG420 long pass filter and a 375 nm excitation wavelength. The instrument response factor was measured using a highly diluted solution of LUDOX AS-30 colloidal silica in water and a ND1.0 filter. The concentration of LUDOX and the emission slit width were adjusted until the intensity of the instrument response function (IRF) was similar to the fluorescent decay intensity. The procedure given in the EasyLife X User's Manual was followed.

[2] = target: Exenatide (Heloderma suspectum, UniProt P26349); assay: Photochemical labeling of exenatide with pyridinium salt (General Procedure B, LC/MS); type: biochemical; conditions: trypsin digest
Description: General Procedure B: Photochemical Irradiation of Peptides and Proteins: To a 2 mL Pyrex LC/MS vial (Thermo model #03-391-39) were sequentially added solutions containing the desired biomolecule, glutathione (GSH), pyridinium salt, and ammonium acetate (NH4OAc). The resulting solution was diluted to a final volume of 500 μL and then sparged using nitrogen for a minimum of 30 minutes prior to irradiation. The actively sparging solution was then placed in an EvoluChem™ PhotoRedOx Box photoreactor that was equipped with a Kessil, PR160 427 nm LED Lamp and was then irradiated (100% lamp intensity) for the designated time at room temperature while maintaining active sparging. The resultant reaction mixture was then analyzed directly by LC/MS. […]
Labeling of Exenatide with Pyridinium Salt 2a (Exenatide-2a Conjugate). […] The resulting reaction mixture was directly analyzed by LC/MS using method A and was estimated to have proceeded in 70% conversion. […]
General Trypsin Digest Protocol B: For non-cystine bridged labeled proteins, a standard trypsin digest was modified as follows. […] The digested mixture was analyzed directly by LC/MS and MS/MS using method C.
Exenatide-2a Conjugate. […] The digested mixture was analyzed directly by LC-MS and MS/MS. […]

Chain of Exenatide (P26349 48-86 limits assumed): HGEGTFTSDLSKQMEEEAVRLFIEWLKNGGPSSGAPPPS

SMILES: COc1ccc2cc(-c3cc(C)[n+](N(C)C(=O)OCCCCC[C@H]4SC[C@H]5NC(=O)N[C@H]54)c(C)c3)ccc2c1 (stereo in doubt) [pyridinium salt 2b, 4-(6-methoxynaphthalen-2-yl)-2,6-dimethyl-1-(methyl(((5-((3aR,4R,6aS)-2-oxohexahydro-1H-thieno[3,4-d]imidazol-4-yl)pentyl)oxy)carbonyl)amino)pyridin-1-ium tetrafluoroborate]
- relative fluorescence quantum yield ΦF1 of pyridinium salt 2b: pyridinium salt 2a [1]: 3.3

SMILES: COC(=O)N(C)[n+]1c(C)cc(-c2ccc3cc(OC)ccc3c2)cc1C [pyridinium salt 2a, 1-((methoxycarbonyl)(methyl)amino)-4-(6-methoxynapthalen-2-yl)-2,6-dimethylpyridin-1-ium tetrafluoroborate]
- Modified Trp [2]: Trp-025
